ChEMBL document CHEMBL1201862, “PubChem BioAssay data set” (2004)
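These data come from cells grown in 96-well plates and exposed to compound for 48 hours at five concentrations. GI50 = concentration required for 50% inhibition of growth.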 Calls of active or inactive are those of the source. Rule as the data show it: active = GI50 up to about 1.1 µM and inactive = higher.

Key:
Assay in all cases: growth of human tumour cells (NCI), 48 h
SW-620 = system: SW-620
TK-10 = system: TK-10
KM12 = system: KM12
MDA-MB-435 = system: MDA-MB-435
MDA-N = system: MDA-N
M14 = system: M14
UACC-62 = system: UACC-62
SK-MEL-2 = system: SK-MEL-2
SF-295 = system: SF-295
HT-29 = system: HT-29
SF-539 = system: SF-539
NCI-H460 = system: NCI-H460
K562 = system: K562
SK-MEL-28 = system: SK-MEL-28
HOP-62 = system: HOP-62
SF-268 = system: SF-268
CAKI-1 = system: CAKI-1
Hs-578T = system: Hs-578T
Malme-3M = system: Malme-3M
MOLT-4 = system: MOLT-4
COLO 205 = system: COLO 205
SNB-19 = system: SNB-19
HCT-116 = system: HCT-116
HL-60 = system: HL-60
SNB-75 = system: SNB-75
SK-OV-3 = system: SK-OV-3
A498 = system: A498
SK-MEL-5 = system: SK-MEL-5
PC-3 = system: PC-3
IGROV-1 = system: IGROV-1
OVCAR-3 = system: OVCAR-3
RPMI-8226 = system: RPMI-8226
CCRF-CEM = system: CCRF-CEM
U-251 = system: U-251
A549 = system: A549
786-0 = system: 786-0
ACHN = system: ACHN
NCI/ADR-RES = system: NCI/ADR-RES
MCF7 = system: MCF7
NCI-H226 = system: NCI-H226
T47D = system: T47D
BT-549 = system: BT-549
MDA-MB-231 = system: MDA-MB-231
LOX IMVI = system: LOX IMVI
HCT-15 = system: HCT-15
NCI-H522 = system: NCI-H522
SR = system: SR
OVCAR-5 = system: OVCAR-5
HCC 2998 = system: HCC 2998
UO-31 = system: UO-31
NCI-H23 = system: NCI-H23
OVCAR-8 = system: OVCAR-8
UACC-257 = system: UACC-257
DU-145 = system: DU-145
EKVX = system: EKVX
RXF 393 = system: RXF 393
SN12C = system: SN12C
OVCAR-4 = system: OVCAR-4
HOP-92 = system: HOP-92

C=C(C)C(=O)OC1C[C@H](COC(C)=O)C2CC=C(CO)C2C2OC(=O)C(=C)[C@H]12 (some centres undefined)
GI50 (SW-620): 16.2 µM (inactive)
GI50 (TK-10): 74.6 µM (inactive)
GI50 (KM12): > 100 µM (inactive)
GI50 (MDA-MB-435): 35.3 µM (inactive)
GI50 (MDA-N): 34.5 µM (inactive)
GI50 (M14): 16.3 µM (inactive)
GI50 (UACC-62): 39.6 µM (inactive)
GI50 (SK-MEL-2): 40.3 µM (inactive)
GI50 (SF-295): > 100 µM (inactive)
GI50 (HT-29): 32.3 µM (inactive)
GI50 (SF-539): > 100 µM (inactive)
GI50 (NCI-H460): > 100 µM (inactive)
GI50 (K562): 14.9 µM (inactive)
GI50 (SK-MEL-28): 32.3 µM (inactive)
GI50 (HOP-62): > 100 µM (inactive)
GI50 (SF-268): 23.6 µM (inactive)
GI50 (CAKI-1): 41.6 µM (inactive)
GI50 (Hs-578T): > 100 µM (inactive)
GI50 (Malme-3M): 16.8 µM (inactive)
GI50 (MOLT-4): 13.8 µM (inactive)
GI50 (COLO 205): 16.4 µM (inactive)
GI50 (SNB-19): > 100 µM (inactive)
GI50 (HCT-116): 18.3 µM (inactive)
GI50 (HL-60): 23.1 µM (inactive)
GI50 (SNB-75): 69.2 µM (inactive)
GI50 (SK-OV-3): > 100 µM (inactive)
GI50 (A498): > 100 µM (inactive)
GI50 (SK-MEL-5): > 100 µM (inactive)
GI50 (PC-3): > 100 µM (inactive)
GI50 (IGROV-1): > 100 µM (inactive)
GI50 (OVCAR-3): 42.4 µM (inactive)
GI50 (RPMI-8226): 12.4 µM (inactive)
GI50 (CCRF-CEM): 10.4 µM (inactive)
GI50 (U-251): > 100 µM (inactive)
GI50 (A549): > 100 µM (inactive)
GI50 (786-0): 27.6 µM (inactive)
GI50 (ACHN): 44.3 µM (inactive)
GI50 (NCI/ADR-RES): 45.4 µM (inactive)
GI50 (MCF7): 38.1 µM (inactive)
GI50 (NCI-H226): > 100 µM (inactive)
GI50 (T47D): 34.8 µM (inactive)
GI50 (BT-549): 61.1 µM (inactive)
GI50 (MDA-MB-231): 51.8 µM (inactive)
GI50 (LOX IMVI): 26.7 µM (inactive)
GI50 (HCT-15): 24.8 µM
GI50 (NCI-H522): 19.1 µM (inactive)
GI50 (SR): 23.2 µM (inactive)
GI50 (OVCAR-5): > 100 µM (inactive)
GI50 (HCC 2998): 47.2 µM (inactive)
GI50 (UO-31): 39.2 µM (inactive)
GI50 (NCI-H23): 42.8 µM (inactive)
GI50 (OVCAR-8): > 100 µM (inactive)
GI50 (UACC-257): 38.8 µM (inactive)
GI50 (DU-145): > 100 µM (inactive)
GI50 (EKVX): > 100 µM (inactive)

O=C(CC(C(=O)c1cccs1)c1ccc2c(c1)OCO2)c1ccccc1 (centres undefined)
GI50 (SW-620): > 100 µM (inactive)
GI50 (RXF 393): > 100 µM (inactive)
GI50 (TK-10): 19.6 µM (inactive)
GI50 (KM12): > 100 µM (inactive)
GI50 (MDA-MB-435): 80.4 µM (inactive)
GI50 (MDA-N): > 100 µM (inactive)
GI50 (M14): 73.8 µM (inactive)
GI50 (UACC-62): > 100 µM (inactive)
GI50 (SK-MEL-2): > 100 µM (inactive)
GI50 (SF-295): > 100 µM (inactive)
GI50 (HT-29): > 100 µM (inactive)
GI50 (SF-539): > 100 µM (inactive)
GI50 (NCI-H460): 46.7 µM (inactive)
GI50 (SK-MEL-28): > 100 µM (inactive)
GI50 (HOP-62): > 100 µM (inactive)
GI50 (SF-268): > 100 µM (inactive)
GI50 (CAKI-1): > 100 µM (inactive)
GI50 (SN12C): > 100 µM (inactive)
GI50 (Hs-578T): > 100 µM (inactive)
GI50 (Malme-3M): > 100 µM (inactive)
GI50 (COLO 205): > 100 µM (inactive)
GI50 (SNB-19): > 100 µM (inactive)
GI50 (HCT-116): 50.5 µM (inactive)
GI50 (HL-60): 58.9 µM (inactive)
GI50 (SNB-75): > 100 µM (inactive)
GI50 (SK-OV-3): > 100 µM (inactive)
GI50 (A498): > 100 µM (inactive)
GI50 (OVCAR-4): > 100 µM (inactive)
GI50 (SK-MEL-5): > 100 µM (inactive)
GI50 (PC-3): > 100 µM (inactive)
GI50 (IGROV-1): > 100 µM (inactive)
GI50 (OVCAR-3): > 100 µM (inactive)
GI50 (RPMI-8226): > 100 µM (inactive)
GI50 (U-251): > 100 µM (inactive)
GI50 (A549): > 100 µM (inactive)
GI50 (786-0): > 100 µM (inactive)
GI50 (ACHN): > 100 µM (inactive)
GI50 (NCI/ADR-RES): > 100 µM (inactive)
GI50 (MCF7): > 100 µM (inactive)
GI50 (NCI-H226): > 100 µM (inactive)
GI50 (T47D): 52.7 µM (inactive)
GI50 (BT-549): > 100 µM (inactive)
GI50 (MDA-MB-231): > 100 µM (inactive)
GI50 (LOX IMVI): > 100 µM (inactive)
GI50 (HCT-15): > 100 µM
GI50 (NCI-H522): > 100 µM (inactive)
GI50 (SR): 70.1 µM (inactive)
GI50 (HCC 2998): > 100 µM (inactive)
GI50 (HOP-92): > 100 µM (inactive)
GI50 (UO-31): > 100 µM (inactive)
GI50 (NCI-H23): > 100 µM (inactive)
GI50 (OVCAR-8): > 100 µM (inactive)
GI50 (UACC-257): > 100 µM (inactive)
GI50 (DU-145): > 100 µM (inactive)
